Experiment: Compound extraction (loss) from PBS buffer by PDMS coating, UV-VIS at 260 nm
Type: physicochemical
Conditions: 200 μL of 200 μM Nefazodone-PBS, 24 hours, less than 0.8 mg of PDMS in 200 μL PBS (volume ratio PDMS to buffer less than 1/250)
Procedure: Nefazodone is a small hydrophobic compound that can be readily extracted from aqueous buffer by PDMS following a partition function rule, which means the loss of Nefazodone […] with the amount of PDMS present in a given volume of buffer. In order to determine the safe quantity of PDMS for use with 200 μL of PBS buffer, 200 μL of a 200 μM Nefazodone-PBS solution was incubated in wells (formed generally as described above in EXAMPLE 4) containing varying PDMS coating amounts from 0.005 mg to 4 mg per well for 24 hours. After 24 hours the Nefazodone that remained in the PBS buffer was measured by UV-VIS adsorption at 260 nm. The results shown in FIG. 11 indicate that the loss of Nefazodone is negligible in the presence of less than 0.8 mg of PDMS in 200 μL of PBS buffer (meaning volume ratio of PDMS to buffer is less than 1/250).

- loss of Nefazodone from PBS buffer: negligible
SMILES: CCc1nn(CCCN2CCN(c3cccc(Cl)c3)CC2)c(=O)n1CCOc1ccccc1 [Nefazodone]

From US20140141503A1, “CELL CULTURE SUBSTRATE HAVING UNIFORM SURFACE COATING” (Corning Incorporated, priority 2012, published 2014)
